Assay results taken from US10195311B2, “Local delivery of drugs from self assembled coatings” (Interface Biologics, Inc., priority 2009, dated 2019).

What was measured:
Type in all cases: physicochemical
[1] = Oligofluoro as solubilizing agent, drug release from coated nylon films in water; details: drug at 4 wt %, nylon film, water 24 hours
[2] = Drug shielding effect on Nylon 12 film, PTX release in PBS; details: PBS pH 7.4, 37° C.
Experimental: (§1) Compounds 1, 7, and 14 (200 mg/mL) were dissolved in THF. PTX was added to each solution to make a 25 mg/mL solution. Nylon 12 film sheets were cut 1×1 cm size, blend solution was drop cast on the film sheet, dried in a 50° C. flow oven for 1 day. PTX alone was prepared the same way and used as the control. PBS pH 7.4 was pre-warmed to 37° C. Test articles and control articles were incubated in media (4 mL) at 37° C. for 10, 30, 60 and 120 minutes. At the end of each time point, media was exchanged and at the end of the study, the films were stripped with organic solvent, centrifuged, the supernatant collected, and solvent dried overnight at 60° C. The assessment of the drug shielding effect was analyzed by RP-HPLC with benzonitrile as the internal standard. 10 minute PTX release in PBS (ng/mL): Compound 1: 107.6, Compound 7: 79.7, Compound 14: 15.4, PTX alone: 651. The assessment of oligofluoro adhesion on film surface was done by NMR. A calibration curve for each compound was generated by NMR. Stripped coating was re-suspended in CDCl3 (1 mL) and NMR was performed. Quantity of remaining material was back calculated from NMR integration area. Percent remaining material after 120 minute incubation in PBS: Compound 1: 82.1, Compound 7: 85.5. Similar assessment of drug shielding on films was done with porcine whole blood. […]

[3] = Drug shielding on Nylon 12 film, PTX release in porcine whole blood
Experimental: as §1

- Percentage drug released in water [1]: 11%
- 10 minute PTX release in PBS [2]: 651 ng/mL
- 10 minute PTX release in blood [3]: 75.6%
SMILES: CC(=O)O[C@H]1C(=O)[C@@]2(C)[C@H]([C@H](OC(=O)c3ccccc3)[C@]3(O)C[C@H](OC(=O)[C@H](O)[C@@H](NC(=O)c4ccccc4)c4ccccc4)C(C)=C1C3(C)C)[C@]1(OC(C)=O)CO[C@@H]1C[C@@H]2O [PTX, paclitaxel]
